The text below walks through data of US20240190841A1, “MODULATORS OF BCL6 PROTEOLYSIS AND ASSOCIATED METHODS OF USE” (Arvinas Operations, Inc., priority 2022, published 2024).

Where only a bound is given, the exact number is not on record here.

For the assay, the target named is T1, BCL6 (Homo sapiens, UniProt P41182).
T1 construct: endogenous in cells; host or cells: T47D breast cancer epithelial cells
Briefly: Immunofluorescence high content imaging of BCL6 degradation in T47D cells. Format: cell-based. The note with it: T47D breast cancer epithelial cells, 3 days incubation. In outline:
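T47D breast cancer cells treated 3 days at 37 °C with an 11-point 3-fold dilution series (top final 0.1 or 1 μM). Fixed with 4% PFA, Triton-permeabilised, stained with anti-BCL6 rabbit antibody plus Alexa-488 secondary, CellMask and Hoechst; imaged at 10×, 4 fields/well.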

The compound `CNC(=O)COc1cc2cc(Nc3nc(N4CCC(O[C@H]5C[C@H](N6CCN(c7cnc8c(c7)n(C)c(=O)n8C7CCC(=O)NC7=O)CC6)C5)CC4)ncc3Cl)ccc2n(C(C)C)c1=O` (some centres unmarked) [Compound 16, 2-({6-[(5-chloro-2-{4-[(1r,3r)-3-{4-[3-(2,6-dioxopiperidin-3-yl)-1-methyl-2-oxo-1H,2H,3H-imidazo[4,5-b]pyridin-6-yl]piperazin-1-yl}cyclobutoxy]piperidin-1-yl}pyrimidin-4-yl)amino]-2-oxo-1-(propan-2-yl)-1,2-dihydroquinolin-3-yl}oxy)-N-methylacetamide] gave a DC50 below 10 nM and a Dmax of 50 to 70%.

In general, DC50 refers to the midpoint of the concentration-degradation curve. Low values mean a more potent degrader, high ones a less potent degrader. One may read the Dmax as the largest share of the target that was removed. A high value points to deep degradation.
